Reference: patent US7846483B2, “Cosmetic composition for skin application suitable for relaxing expression wrinkles” (Labo Cosprophar AG, priority 2004, dated 2010)
Where no end group is shown, it is not given here.

Legend:
[1] = test system: endoplasmic reticulum vesicles; assay: Outflow of calcium ions from endoplasmic reticulum vesicles versus external magnesium ion concentration; format: biochemical; conditions: with an increase in the concentration of Mg++ in the medium (FIG. 2)
Method: In particular, the dependence of the flow at the outlet of the calcium ions on the external concentration of magnesium ions was evaluated. The results obtained are shown in the graph of FIG. 2.

POMC gene = assay: Gene expression of the POMC gene in a culture of human keratinocytes; format: cell-based; conditions: human keratinocytes incubated for 24 h
CGRP = CGRP synthesis in a culture of neurons; format: cell-based; conditions: neurons incubated for 6 hours
[2] = test system: nerve-muscle co-culture model; assay: Contraction frequency in a nerve-muscle co-culture model with acetyl Dipeptide-1 cetyl ester; format: cell-based; conditions: for contraction inhibition: 0.9%
Method: The decontracting efficacy was evaluated, of dipeptide N-acetyl tyrosyl-arginyl (Dipeptide) hexadecyl ester, dissolved in a hydro-glycol excipients.
• 1. […] Evaluation of the contraction frequency in a nerve-muscle co-culture model in incubation with acetyl Dipeptide-1 cetyl ester at 0.9% for 5 minutes and 2 h.

[3] = test system: nerve-muscle co-culture model; assay: In vitro efficacy test on pentapeptide: contraction frequency in a nerve-muscle co-culture model; format: cell-based; conditions: 0.3% by weight, contractions counted over 30 sec
Method: In vitro efficacy test on pentapeptide
The frequency of the contractions was determined in a nerve-muscle co-culture model to evaluate the decontracting capacity of pentapeptide gly-pro-arg-pro -ala-NH2 SEQ ID NO 1, used at a concentration of 0.3% by weight.

In the case of Magnesium ions, the “quantity of Calcium ions released from the endoplasmic reticulum vesicles” value [1] is reported as “decreases”.
For “N-acetyl tyrosyl-arginyl (Dipeptide) hexadecyl ester [acetyl Dipeptide-1 cetyl ester]”, the “over-expression of the POMC gene with respect to the reference” value (POMC gene; 0.9%) was “> +29%”, the “over-expression of the POMC gene with respect to the reference” value (POMC gene; 1.9%) was “> +63%” and the “reduction in the CGRP synthesis with respect to the reference” value (CGRP; 2.8%) was −0%. The “reduction in the CGRP synthesis with respect to the reference” value (CGRP; 4.7%) was −50%, the contraction inhibition ([2]; after 5 minutes of incubation, 1 fiber out of 3) was “higher than 20%” and the contraction inhibition ([2]; after 2 hours of incubation, all 3 fibers) was 100%.
In the case of “gly-pro-arg-pro-ala-NH2 (GPRPA-NH2) [pentapeptide]”, the “average reduction in the contraction frequency” value ([3]; after 1 minute of incubation) is reported as 69.75% and the “average reduction in the contraction frequency” value ([3]; after 2 hours of incubation) is reported as 60.75%.
α-bungarotoxin [reference compound] was tested, and the “DECREASE IN THE MUSCULAR FIBER CONTRACTION, Positive reference (α-bungarotoxin)” value [2] was “Blockage”.
